Measured values as given in EP2518054A1, “AMIDE COMPOUND” (Takeda Pharmaceutical Company Limited, priority 2009, dated 2011).

Key:
[1] = system: methamphetamine-induced locomotor hyperactivity in mice; assay: Inhibition test of methamphetamine-induced locomotor hyperactivity; assay type: in vivo; conditions: test compound 10 mg/kg body weight orally, male ICR mice; methamphetamine 2 mg/kg s.c. 60 min later; locomotor activity counted over 150 min, versus vehicle group
Procedure: Inhibition test of methamphetamine-induced locomotor hyperactivity
The compound of the present invention can be evaluated by assessing its capacity to inhibit methamphetamine-induced locomotor hyperactivity in mice. The method of Okuyama et al (Life Science, Vol. 65, p. 2109-2125 (1999)) was modified and used for testing the inhibition of methamphetamine-induced locomotor hyperactivity.
Locomotor activity was measured using a 32-channel locomotor activity measurement device MDC-LT (BrainScience Idea Co., Ltd.), which emits infrared beams from the top of a cage (30 x 40 x 20 cm). 6- to 8-Week-old male ICR mice were acclimated for at least 45 min in the measurement cages, and then either test compound (10 mg/kg body weight) dissolved in vehicle (0.5% aqueous methylcellulose solution) or the vehicle alone was orally administered. This oral administration was followed 60 min later by subcutaneous administration of methamphetamine (2 mg/kg body weight).
The number of times the laboratory animals passed through the infrared beams emitted inside the measurement cages in 150 min after administration of the test compound or vehicle was counted to quantify locomotor activity. The methamphetamine-induced locomotor hyperactivity inhibition rate (activity inhibition rate (%)) was calculated by the following equation. Activity inhibition rate (%) = {1-(locomotor activity of test compound treatment group after treatment with methamphetamine÷locomotor activity of vehicle treatment group after treatment with methamphetamine)}x 100 [formula] The results are shown in Table 3

human GPR52 = biological target: T1, human GPR52 (Homo sapiens, UniProt Q9Y2T5); assay: Increase of intracellular cAMP concentration in human GPR52-expressing CHO cell (AlphaScreen cAMP assay); assay type: cell-based; conditions: human GPR52-expressing CHO(dhfr-) cells; for activity at 1 µM: CHO, 1µM test compound, 100% = cAMP with 1 µM Reference Example 79, 0% = DMSO, 37°C, 30 min, read-out: GPR52 agonist activity (%); for EC50: concentration of the test compound at which it shows 50% activity, read-out: GPR52 agonist activity EC50
T1 construct: expressed in transfected cells; host or cells: CHO(dhfr-) cells
T1 sequence (Q9Y2T5 whole entry): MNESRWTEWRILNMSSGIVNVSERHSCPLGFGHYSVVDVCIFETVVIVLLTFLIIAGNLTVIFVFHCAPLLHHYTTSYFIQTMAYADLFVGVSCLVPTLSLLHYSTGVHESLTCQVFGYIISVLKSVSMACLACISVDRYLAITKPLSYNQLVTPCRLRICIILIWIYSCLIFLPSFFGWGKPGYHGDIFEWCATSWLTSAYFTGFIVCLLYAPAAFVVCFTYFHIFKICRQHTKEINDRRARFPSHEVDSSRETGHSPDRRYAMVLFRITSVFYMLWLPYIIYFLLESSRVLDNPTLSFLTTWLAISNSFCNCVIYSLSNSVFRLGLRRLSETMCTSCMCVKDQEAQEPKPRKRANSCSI
In short: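 1×10^4 GPR52-expressing CHO(dhfr-) cells incubated 30 min at 37 °C with compound (10^-5 µM–10 µM) in HBSS, 0.5% BSA, 100 µM IBMX, 100 µM Ro20-1724, 5 mM HEPES pH 7.55; cAMP read by AlphaScreen. Agonism normalized to 1 µM reference agonist (100%) and DMSO (0%).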

Row | Structure (SMILES) | activity at 1 µM (human GPR52) | EC50 (human GPR52) | Activity inhibition rate (%) [1]
1 | Cc1nn(-c2ccc(F)c3cc(Cc4cccc(C(F)(F)F)c4)sc23)c(C)c1C(=O)NCC(N)=O [Example 58, N-(2-amino-2-oxoethyl)-1-[4-fluoro-2-[3-(trifluoromethyl)benzyl]-1-benzothiophen-7-yl]-3,5-dimethyl-1H-pyrazole-4-carboxamide] | 92% | 40 nM | 47%
2 | Cc1nn(-c2cccc3cc(Cc4cccc(C(F)(F)F)c4)sc23)c(CO)c1C(=O)NCCO [Example 65, N-(2-hydroxyethyl)-5-(hydroxymethyl)-3-methyl-1-[2-[3-(trifluoromethyl)benzyl]-1-benzothiophen-7-yl]-1H-pyrazole-4-carboxamide] | 99% | – | 51%

Further molecules by falling EC50 (human GPR52), results first:

Row | activity at 1 µM (human GPR52) | EC50 (human GPR52) | Structure (SMILES) | Activity inhibition rate (%) [1]
3 | 87% | 14 nM | COCCNC(=O)c1cn(-c2cccc3cc(Cc4cccc(C(F)(F)F)c4)sc23)nc1C [Example 14, N-(2-methoxyethyl)-3-methyl-1-[2-[3-(trifluoromethyl)benzyl]-1-benzothiophen-7-yl]-1H-pyrazole-4-carboxamide] | 53%
4 | 96% | 11 nM | Cc1nn(-c2cccc3cc(Cc4cccc(C(F)(F)F)c4)sc23)cc1C(N)=O [Example 17, 3-methyl-1-[2-[3-(trifluoromethyl)benzyl]-1-benzothiophen-7-yl]-1H-pyrazole-4-carboxamide] | 43%
5 | 102% | 5.7 nM | Cc1nn(-c2cccc3cc(Cc4cccc(C(F)(F)F)c4)sc23)cc1C(=O)NCCO [Example 15, N-(2-hydroxyethyl)-3-methyl-1-[2-[3-(trifluoromethyl)benzyl]-1-benzothiophen-7-yl]-1H-pyrazole-4-carboxamide] | 48%
